Reference: US20210108198A1, “APPLICATION OF COMPOUND OR TRADITIONAL CHINESE MEDICINE EXTRACT IN PREPARATION OF NUCLEIC ACID DELIVERY AGENT AND RELATED PRODUCTS THEREOF” (INSTITUTE OF BASIC MEDICAL SCIENCES CHINESE ACADEMY OF …, priority 2017, published 2021)

How the values were obtained:
A549 cell line = experiment: Fluorescence in situ hybridization (FISH) of small RNA delivered by lipid; type: cell-based, human; conditions: reverse evaporation method; FIG. 12
Procedure: 3.3.3 Fluorescence In Situ Hybridization (FISH) of Small RNA
9) The culture plate was placed in a hybridization cassette in hybridization buffer (50% formamide, 5×SSC, 5× Denharts, 250 μg/mL yeast RNA, 500 μg/mL herring sperm DNA) and pre-incubated at room temperature for 1 hour.
10) Add RNA probes (HJT-sRNA-m7 probe: 5′-[…]-3′ (SEQ ID NO: 27), Scrambled probe: 5′-[…]-3′ (SEQ ID NO: 28), U6 probe: 5′-[…]-3′ (SEQ ID NO: 29)) to the hybridization buffer (the concentration of RNA probes was 0.1-0.2 ng/μ1), denature at 85° C. for 5 min, and quickly place it on ice. […]
(§1) Mixtures of soybean PC, lipid No. 11 (18:0/18:2) and lipid No. 12 (16:0/18:2), and various small RNA (see below Table 3) were prepared by the reverse evaporation method and then added into A549 cell line (the final concentration of sRNA was 200 nM); the negative control group (control) was directly added with the same concentration of sRNA; the positive control group (RNAimax) was transfected with Lipofectamine RNAimax (transfection reagent 6 μl/well). The abundance of sRNA in the cells was detected by Taqman probe after 3 hours, and the relative expression level of sRNA was calculated by 2-ΔCt method.

A549 cell = experiment: RT-qPCR detection of nucleic acid delivered by lipid into A549 cells; type: cell-based, human; conditions: various small RNA 200 nM; reverse evaporation method; 3 hours; compared with the control; FIG. 11A-C
Procedure: 3.1 NCI-N87 cell (gastric cancer cell), MRC-5 cell (lung fibroblast), A549 cell (lung cancer cell) were cultured to logarithmic growth phase, and then plated to a six-well plate at cell density of 1×10^6/2 mL medium/well; MRC-5 cell was cultured in Eagle's MEM medium (MEM, Gibco); A549 cell was cultured in Ham's F-12 medium (HyClone); NCI-N87 cell was cultured in RPMI-1640 medium (HyClone); followed by incubation overnight at 37° C., and the follow-up experiments were performed after the cells were attached to the walls.
4) Lipid nucleic acid mixture: the mixture of lipid and HJT-sRNA-m7 prepared from the step 2 were added into cells and mixed, and the final concentration of RNA was kept at 200 nM.
3.3 After co-incubation with the small RNA for 3 hours, the cells were washed 2-3 times with PBS. The cells were harvested with TRIzol lysis buffer, and the total RNA was extracted. The abundance of small RNA that entered cells was detected by RT-qPCR, and the localization of RNA was detected by fluorescence in situ hybridization; protocols of each detection method were as follows:
3.3.1 RT-qPCR Detection of Small RNA (Taqman Probe Method)
3.3.2 RT-qPCR Detection of Small RNA (SYBR Green Dye Method)
as §1
3.1.3 After co-incubation with cells for 12-24 hours, the cells were washed twice with PBS. The cells were harvested with TRIzol lysis buffer (purchased from Sigma-Aldrich), and total RNA was extracted. The abundance of HJT-sRNA-m7 that entered the cells was detected by RT-qPCR; the protocols were as follows:
4368813) was used to reverse transcribe sRNA to cDNA by stem-loop method (see, e.g. Real-time quantification of microRNAs by stem-loop RT-PCR, Nucleic Acids Res. 2005 Nov. 27; 33(20):e179, incorporated by reference herein).

[1] = In vivo delivery of lipid nucleic acid mixture by gavage (blood and lung); set-up: species or system C57 mice; conditions: gavage 200 μl/animal; 6 hours after gavage; FIG. 14
Procedure: 1. Preparation of lipid nucleic acid mixture: the mixture of lipid No. 11 or No. 12 with nucleic acid, and the mixture of the lipid combination of No. 1/2/4/9/14/18/19/20/21/22/23/24/25/26/27/28/29/30/32, No. 3/8/10/11/12/13, and No. 6/15/16/17/31 with nucleic acid were prepared by reverse evaporation and boiling method (refer to steps 2.1-2.2).
2. Gavage were performed on 6-8 weeks old male C57 mice: 200 μl/aminal, grouped as follows:
(1) Control group (free uptake group): no treatment or HJT-sRNA-m7 was given by gavage;
(2) Lipid No. 11 (18:0/18:2) group: lipid No. 11 (18:0/18:2) or a mixture of lipid No. 11 (18:0/18:2) and HJT-sRNA-m7 were given by gavage;
(3) Lipid No. 12 (16:0/18:2) group: lipid No. 12 (16:0/18:2) or a mixture of lipid No. 12 (16:0/18:2) and HJT-sRNA-m7 were given by gavage;
3. Sample collection: 6 hours after gavage, mouse whole blood (500 μl) and lung (110 mg) were collected by 1.5 mL TRIzol-LS or 3 mL TRIzol, respectively, homogenized and then frozen under −80° C. for storage.
4. […]

[2] = test system: 3′UTRs of their target genes; experiment: Luciferase with wild-type or mutated 3′UTR of target gene after lipid-mediated sRNA delivery; type: cell-based; conditions: FIG. 13
Description: It can be used as a means for the delivery of nucleic acid drug.

Structure (SMILES) | localization of delivered nucleic acid (FISH) (A549 cell line) | abundance of sRNA in the cells (Taqman probe) (A549 cell) | entry of HJT-sRNA-m7 into blood and lung (RT-qPCR) [1] | effect on the mutated 3′UTR of target genes (Luciferase) [2] | relative expression level of the Luciferase with the wild-type 3′UTR [2]
CCCCC/C=C\C/C=C\CCCCCCCC(=O)O[C@H](COC(=O)CCCCCCCCCCCCCCCCC)COP(=O)([O-])OCC[N+](C)(C)C [No. 11, trimethyl(2-{[(2R)-2-[(9Z,12Z)-octadeca-9,12-dienoyloxy]-3-(octadecanoyloxy)propylphosphonato]oxy}ethyl)azanium] | entered into cytoplasm and were primarily localized in cytoplasm | could effectively facilitate nucleic acid molecules of different sequences entry into various cells | could promote entry of small fragments of nucleic acids into the blood and lung | did not act on the mutated 3′UTR of their target genes | reduced the relative expression level of the Luciferase with the wild-type 3′UTR in the target gene
CCCCC/C=C\C/C=C\CCCCCCCC(=O)O[C@H](COC(=O)CCCCCCCCCCCCCCC)COP(=O)([O-])OCC[N+](C)(C)C [No. 12, (2-{[(2R)-3-(hexadecanoyloxy)-2-[(9Z,12Z)-octadeca-9,12-dienoyloxy]propylphosphonato]oxy}ethyl)trimethylazanium] | entered into cytoplasm and were primarily localized in cytoplasm | could effectively facilitate nucleic acid molecules of different sequences entry into various cells | could promote entry of small fragments of nucleic acids into the blood and lung | did not act on the mutated 3′UTR of their target genes | reduced the relative expression level of the Luciferase with the wild-type 3′UTR in the target gene
